The values that follow come from US20240100001A1, “DENATONIUM SALT FOR USE IN PREVENTING, PREVENTING PROGRESSION AND TREATING FATTY LIVER DISEASES” (AARDVARK THERAPEUTICS INC., priority 2021, published 2024).

The test system of series [1] is Male C57BL/6N mice fed choline-deficient, L-amino acid-defined, high-fat diet (CDAHFD). To be noted: cited from earlier work.
The test system of series [2] is AMLN-diet induced NASH mice. It is filed as in vivo. The protocol: This example provides the results obtained from a second in vivo mouse model of fatty liver disease treatment to investigate the therapeutic effect of DA on the treatment of NASH versus positive control semaglutide (a GLP-1 agonist marketed drug for lowering HbA1c). The differences in this study, from the preventive model in Example 1, were that a higher dose of DA (75 mg/kg) was used versus 30 mg/kg, dosing was twice daily (BID versus QD in the Example 1 study), a positive control semaglutide was used, a different mouse strain (B6 mice) was used, and the animals were already adults (23 weeks old in Example 2 versus 4 weeks old in Example 1) when the study began because the animals were already fed an AMLN diet for 17 weeks prior to the study being initiated. The study dose began at 75 mg/kg BID.
The study included 3 groups of 10 mice each, (A) vehicle control with distilled water by gavage BID, (B) DA by gavage BID, and (C) semaglutide […] sc QD. Body weights and changes were measured 3× per week. Serum metabolic markers (blood glucose, blood insulin, HbA1c, HDL, LDL triglycerides and bile acids) were measured at beginning of dosing (baseline) and end of study. At the end of the study, histopathology of liver samples and serum levels of inflammatory biomarkers (IL-6, TNFα, CK-18 and TGF-β) were evaluated. Histopathology was performed blindly with a scoring scale according to NAFLD Activity Score and Fibrosis Score according to Table 4.

The subject of series [3] is AMLN diet-induced NASH mice. Kind of series: Example 1: one-year DA dosing of AMLN diet-induced NASH mice (prevention study). Type of series: in vivo. As for the experimental part:
This example provides the results of a 52 week study of lower dose DA (30 mg/kg per day QD by gavage) in mice where NASH conditions were induced by diet. The data for an animal-induced NASH of such a long duration (48-52 weeks) can be interpreted to support methods for preventing fatty liver diseases, including NASH, and methods of slowing progression of fatty liver diseases, including NASH. Male C57BL/6 mice (4 weeks old at study start) were maintained on a high-fat “Western diet” (AMLN diet) (DIO-NASH) (D09100301, Research Diet, USA) (40% fat (18% trans-fat), 40% carbohydrates (20% fructose) and 2% cholesterol, 40 kcal % fat, 20 kcal % fructose, and 2% cholesterol) following arrival, inducing non-alcoholic steatohepatitis (NASH). Following acclimation, Groups 1 and 2 (n=22 each) were dosed by intragastric oral gavage (PO) with (respectively) vehicle (distilled water) or denatonium acetate (DA) at 30 mg/kg. Doses were administered once daily (QD) for a full year (through Day 366) at dose volumes of 1 mL/kg. Body weights and clinical observations were monitored throughout the study. Blood was collected from fasted animals at baseline (Day −1) and regularly during the study (Weeks 4, 12, 24, and 48), processed to serum or plasma, and evaluated for metabolic parameters [glucose, insulin, hemoglobin A1c (HbA1c), and glucagon-like peptides 1 and 2 (GLP-1 and -2)], selected serum chemistry parameters [Ala aminotransferase (ALT), Asp aminotransferase (AST), albumin (ALB), and total bile acids (BA)], and multiple cytokines (32 total). After 52 weeks of QD dosing, fasted animals were bled and euthanized, and livers were collected and weighed. Terminal serum samples were assessed for low- and high-density cholesterol (LDL and HDL, respectively) and triglycerides (TGA); liver was assessed for total cholesterol (TC), TGA, and free fatty acids (FFA).
Male C57BL/6 mice (n=44) were purchased from Taconic Biosciences, Inc. (Rensselaer, NY), as 4-week-old animals. Following arrival, animals were weighed using an electronic balance (Ohaus SCOUT® PRO, Parsippany, NJ), given a clinical examination to ensure that the mice were in good condition, and group-housed (up to 4 per cage). The animals were maintained in HEPA-filtered static cages using SaniChip bedding 7090A (Harlan Teklad, Hayward, CA). Animal room controls were set to maintain temperature and relative humidity at 22° C.±4° C. and 50% 20%, respectively. Housing rooms were on a 12:12 light/dark cycle. Animals were acclimated on site for at least 3 days prior to entry onto the study. Following arrival and throughout the study, mice were provided with ad libitum access to water (via water bottles) and (except as noted for fasting) to a high-fat “Western diet” (AMLN diet, No. D09100301; Research Diets, New Brunswick, NJ) containing 40 kcal % fat, 20 kcal % fructose, and 2% cholesterol.
DA was formulated at 30 mg/mL in DW. Solid DA was weighed and added to the appropriate volume of DW; the solution was mixed well and inspected visually to ensure that there was no precipitate and to verify that the test article was completely solubilized. The DA dosing solution was prepared freshly each week and stored refrigerated at 4° C. between use in daily dose administrations. On Day −1 (i.e., one day before the start of dosing); and on Weeks 4, 12, 24, and 48 (i.e., after one, 3, 6, and 12 months of dosing), blood and fecal samples were collected from fasted animals. • Fecal samples (4 pellets per cage of 3-4 mice) were collected directly collected from the floor of each cage, divided into two aliquots, and stored at −80° C. for future microbiota and microbiome analysis. Results of those analyses are not included in this report. • Blood (100 μL/animal) was collected from each animal via the submandibular route. All blood samples were assessed for blood glucose levels and then processed to both serum and plasma. […]

For series [4] the following is noted: 23.1 mg/kg BID DA; cited from earlier work.
Series [5] concerns Male C57BL/6 mice fed a CDAHFD diet for 12 weeks. To be noted: cited from earlier work.
Series [6] relates to Male C57BL/6J mice fed with the AMLN diet for 50 weeks. To be noted: 30 mg/kg, PO, QD for 8 weeks; cited from earlier work.
Series [7] concerns patients with NASH and IGT or T2DM. To be noted: women and men; cited from earlier work.
The mark [8] stands for this setting: DA 75 then 50 mg/kg BID, 12 weeks.
Setting [9] is: 30 mg/kg PO QD, one year (48 weeks in Table 2), blinded histopathologic review.
The mark [10] stands for this setting: 30 mg/kg PO QD, only at Week 24.
Where [11] appears, read: after one year of QD dosing, 30 mg/kg.
[12] abbreviates: after one year of daily dosing, 30 mg/kg.

As to `CCCCOCCOc1ccc(-c2ccc3c(c2)/C=C(/C(=O)Nc2ccc([S@@+]([O-])Cc4cncn4CCC)cc2)CCCN3CC(C)C)cc1` [Cenicriviroc], in series [1] (30 mg/kg/day for 4 or 14 weeks), the “intrahepatic accumulation of inflammatory macrophages” value is recorded as “Inhibited”. For the same compound, the fibrosis on histopathology result in series [1] (only with 30 mg/kg/day for 14 weeks, IP) is given as “improved”.

As to `CC(=O)[O-].CC[N+](CC)(CC(=O)Nc1c(C)cccc1C)Cc1ccccc1` [DA, denatonium acetate], in series [2] (setting [8]), the body weight result is given as “remarkable effect”, the body weight change result is “remarkable effect”, the “liver weight vs vehicle” value is given as “significantly decreased” and the “liver/body weight ratio vs vehicle” value is on record as “significantly decreased”. The “NAFLD Activity Score” value in series [2] (blinded histopathologic review, DA 75 then 50 mg/kg BID, 12 weeks) is listed as “significantly improved”. Besides, in series [2] (end of the study), the “ALT levels vs vehicle control” value was “significantly decreased”, the “AST levels vs vehicle control” value was “significantly decreased”, the “CK-18 levels vs vehicle control” value is reported as “significantly decreased” and the “high density lipoproteins (HDL)” value is “significantly decreased”. Moreover, in series [2] (end of the study), the “low density lipoproteins (LDL)” value is on record as “significantly decreased” and the “triglycerides (TG)” value is given as “significantly decreased”. Further, in series [3] (30 mg/kg PO QD), the “levels of the other (n=24) assessed cytokines vs vehicle” value is “Significant treatment-related differences were not seen”. In series [3] (30 mg/kg PO QD, n=22, Weeks 12 and 49, unclear if test article related), the “animals found dead during the study” value is on record as “two”. In addition, in series [3] (setting [9]), the fibrosis on histopathology result is listed as “improved/abrogated” and the steatosis on histopathology result is listed as “significantly improved”. In series [3] (30 mg/kg PO QD, one year, 1.52 vs. 0.58, p<0.0001), the total fibrosis score came out at 0.58. Also, the “relative body weights vs vehicle” value in series [3] (30 mg/kg PO QD, Day 4) is on record as “lower”. Also, in series [3] (30 mg/kg PO QD, Week 4 only), the “IP-10 blood level vs vehicle” value was “Statistically significant attenuation” and the “MIP-1B blood level vs vehicle” value is given as “Statistically significant attenuation”. Moreover, the “IL-13 blood level vs vehicle” value in series [3] (30 mg/kg PO QD, Week 12 only) is “Statistically significant attenuation”. In series [3] (30 mg/kg PO QD, Week 24 only), the “MIP-1a blood level vs vehicle” value is “Statistically significant attenuation”, the “Serum BA levels vs vehicle” value is recorded as “significantly attenuated” and the “fasting blood glucose levels vs vehicle” value is given as “significantly lower”. In addition, the “GLP-2 levels vs vehicle” value in series [3] (30 mg/kg PO QD, Week 48) is listed as “did not differ significantly”. Moreover, in series [3] (30 mg/kg PO QD, Week 48 only), the “IL-6 blood level vs vehicle” value was “Statistically significant attenuation”, the “IL-9 blood level vs vehicle” value is “Statistically significant attenuation” and the “KC blood level vs vehicle” value is listed as “Statistically significant attenuation”. Besides, the “insulin levels vs vehicle” value in series [3] (30 mg/kg PO QD, Weeks 4 and 12, not subsequently) is “significantly elevated”. The “MIG blood level vs vehicle” value in series [3] (30 mg/kg PO QD, Weeks 4 and 48 only) is “Statistically significant attenuation”. Further, in series [3] (30 mg/kg PO QD, Weeks 12 and 48, not Week 24), the “HbA1c levels vs vehicle” value is given as “significantly attenuated”. For the same compound, the “Serum ALT activity levels vs vehicle” value in series [3] (30 mg/kg PO QD, Weeks 24 and 48, not earlier) is “significantly attenuated”. Further, the “Serum ALB levels vs vehicle” value in series [3] (30 mg/kg PO QD, any assessed time point) is on record as “did not differ significantly”. In series [3] (30 mg/kg PO QD, during the first 5 months (both groups)), the “body weight increase from baseline” value is roughly 150%. Besides, in series [3] (30 mg/kg PO QD, during the study except Day 4 relative), the “body weights (absolute or relative) vs vehicle” value is “did not differ in a statistically significant manner”. Besides, in series [3] (30 mg/kg PO QD, during the year-long study (both groups)), the “body weights mean increase from baseline” value is “approximately 200%”. In series [3] (setting [10]), the “GLP-1 levels vs vehicle” value was “significantly attenuated” and the “Serum AST activity levels vs vehicle” value is listed as “significantly attenuated”. In series [3] (30 mg/kg, PO, QD for 48 weeks), the “Lowered serum levels of ALT” value is “ALT (−43%),”, the “Lowered serum levels of AST” value is “AST (−9.5%),”, the “Lowered serum levels of HbA1c” value is recorded as “HbA1c (−6.7%),” and the “Lowered serum levels of bile acid” value is reported as “acid (−16.2%)”. Further, in series [3] (30 mg/kg, PO, QD for 48 weeks), the “Lowered serum levels of fasting glucose” value is “glucose (−9%),”, the “decreased liver weight of animals” value is recorded as “(by 10%)”, the “serum levels of GLP-1 (Table 2 summary)” value is recorded as “Increased” and the “serum levels of GLP-2 (Table 2 summary)” value is recorded as “Increased”. For the same compound, the “serum levels of inflammatory markers” value in series [3] (30 mg/kg, PO, QD for 48 weeks) is reported as “Lowered serum”. Also, in series [3] (setting [11]), the “absolute liver weight at necropsy vs vehicle” value was “not absolute liver weight was attenuated” and the “relative (body weight-normalized) liver weight at necropsy vs vehicle” value is “attenuated”. In addition, in series [3] (setting [12]), the “Liver TGA levels vs vehicle” value was “significantly attenuated”; the “Serum TGA levels vs vehicle” value is recorded as “significantly attenuated”; the “liver FFA levels vs vehicle” value is “not those of TC or FFA, were significantly attenuated”; the “liver TC levels vs vehicle” value is “not those of TC or FFA, were significantly attenuated”. In series [3] (setting [12]), the “serum HDL levels vs vehicle” value was “not those of HDL or LDL, were significantly attenuated” and the “serum LDL levels vs vehicle” value is “not those of HDL or LDL, were significantly attenuated”. In addition, in series [3] (mouse, in vivo, po, 30 mg/kg), the “adverse effects on survival, body weight, or clinical signs” value is listed as “did not appear to have adverse effects”. In series [4], the weight gain result is on record as “significant reduction”.

Regarding `CC[C@H]1[C@@H](O)[C@@H]2[C@H](CC[C@]3(C)[C@@H]([C@H](C)CCNC(=O)NS(=O)(=O)c4ccc(C(C)(C)C)cc4)CC[C@@H]23)[C@@]2(C)CC[C@@H](O)C[C@@H]12` [EDP-305], the fibrogenic gene expression entry in series [5] (High dose (30 mg/kg)) is reported as “decreased”. For the same compound, the “fibrosis progression on histopathology” value in series [5] (High-dose (30 mg/kg) daily PO from the beginning of week 6) is reported as “mg/kg) halted”.

With `CSc1ccc(C(=O)/C=C/c2cc(C)c(OC(C)(C)C(=O)O)c(C)c2)cc1` [Elafibranor], in series [6], the fibrosis severity entry is “reduced”, the “histopathological score of hepatic steatosis” value was “reduced” and the “histopathological score of inflammation” value is “reduced”.

Take `CCc1ccc(CCOc2ccc(CC3SC(=O)NC3=O)cc2)nc1` (stereo not shown) [pioglitazone]: in series [7], the “risk of weight gain, edema, congestive heart failure, and osteoporotic fractures” value was “significantly increased risk”.
